Assay results reported in US11957671B2, “Benzodioxane modulators of leukotriene A4 hydrolase (LTA4H) for prevention and treatment of aging-associated diseases” (Alkahest, Inc., priority 2021, dated 2024).

Experiments:
[1] = Body weight of aged mice; format: in vivo, mouse
Protocol: (§1) Three independent cohorts of aged wild type (WT; C57BL/6) mice between twenty to twenty-two months of age (20-22 mo) were homogenized into two (2) groups by body weight, total distance travelled in the open field test, and average velocity in the open field test. Group 1 was administered vehicle control PO daily. Group 2 was administered 10 mg/kg of the LTA4H inhibitor Compound 1 PO daily. Both groups were dosed for either 10 days or 4 weeks daily. Behavioral assays were run during the last week of dosing and animals were sacrificed at the end of the study for histological and molecular assays.

[2] = molecular target: LTA4H hydrolase activity (Mus musculus (Mouse), UniProt P24527); assay: Pharmacodynamic analysis of plasma LTB4 after a single dose; format: in vivo
Sequence of LTA4H hydrolase activity (P24527 whole entry): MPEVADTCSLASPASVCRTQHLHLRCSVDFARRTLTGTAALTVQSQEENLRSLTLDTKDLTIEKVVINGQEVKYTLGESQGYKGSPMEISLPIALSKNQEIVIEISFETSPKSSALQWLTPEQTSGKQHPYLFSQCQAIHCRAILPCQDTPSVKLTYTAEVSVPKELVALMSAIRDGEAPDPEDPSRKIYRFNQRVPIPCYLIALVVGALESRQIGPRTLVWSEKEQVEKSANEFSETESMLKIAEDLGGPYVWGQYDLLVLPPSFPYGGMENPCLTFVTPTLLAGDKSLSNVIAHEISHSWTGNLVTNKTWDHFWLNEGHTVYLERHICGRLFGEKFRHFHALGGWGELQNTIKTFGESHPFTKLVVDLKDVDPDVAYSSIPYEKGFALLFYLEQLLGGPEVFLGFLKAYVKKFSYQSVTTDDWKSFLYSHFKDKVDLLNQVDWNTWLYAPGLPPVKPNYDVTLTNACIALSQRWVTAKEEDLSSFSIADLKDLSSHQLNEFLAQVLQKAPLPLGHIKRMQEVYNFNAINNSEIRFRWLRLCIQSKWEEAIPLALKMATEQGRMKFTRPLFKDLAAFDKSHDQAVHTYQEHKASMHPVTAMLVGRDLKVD
Protocol: Whole blood was collected by cardiac puncture using heparin as an anti-coagulant. 160 μL of whole blood was collected in duplicate for each mouse and incubated for 15 minutes in 37° C./5% CO2. During this time a 0.1 mM calcimycin stock was made by diluting 10 mM calcimycin (Sigma C7522) formulated in DMSO into PBS. Control solution was made by diluting the same volume of DMSO in PBS. Both solutions were sonicated for 10 minutes in a 37° C. water bath. 40 μL of 0.1 mM calcimycin (stimulated) or control solution (unstimulated) was added to each well of whole blood and incubated at 37° C./5% CO2 for 30 minutes. Whole blood was spun for 10 minutes at 1000×g to separate out plasma. LTB4 levels were detected by running an ELISA on the collected stimulated and unstimulated plasma diluted 1:10 (Enzo Life Sciences, ADI-901-068). The ELISA plates were read on a BMG LABTECH CLARIOstar plate reader at 405 nm.

[3] = system: purified endothelial cells from the brains of aged C57BL/6 mice; assay: Microbulk qPCR of endothelial genes; format: in vivo, mouse; settings: 1 month bid P.O., 1 mg/kg Compound 1 or 2.5 mg/kg SC57461A
Protocol: (§2) Downregulation of the detrimental genes Bsg, Gbp4, and CXCL12 in purified endothelial cells from the brains of mice treated with LTA4H inhibitors Compound 1 or SC57461A were compared to those of vehicle treated mice. Gene expression was measured by qPCR from 500 sorted endothelial cells and was normalized to GAPDH control.
Aged C57BL/6 mice (21 months of age) were treated for 1 month bid P.O. with vehicle, 1 mg/kg Compound 1, or 2.5 mg/kg SC57461A (n=3 mice per treatment group). One cortical cap (cortex and hippocampus) from each mouse was isolated and cells were dissociated using Miltenyi Neutral Dissociation Kit (#130-092-628). Cells were sorted using Sony Multi-Application Cell Sorter MA900 into clean, RNAase free 200 uL PCR strip tube with 5 uL RNAlater at a concentration of 500 cells per tube. RNA was isolated follow kit protocol for Qiagen RNeasy Micro Kit (#74004). cDNA was synthesized using SuperScript III Kit Protocol and qPCR assays were run using TaqMan or SYBR green primers.
as §2, with “beneficial gene, Plat,” for “detrimental genes Bsg, Gbp4, and CXCL12”

[4] = system: aged wild type (WT; C57BL/6) mice; assay: Iba-1 histology in hippocampus; format: in vivo, mouse; settings: 4 weeks of dosing
Protocol: Brains were collected following saline perfusion and separated by mid-sagittal slice with one-half drop fixed in freshly prepared 4% PFA. PFA was changed to 30% sucrose 24-48 hours later. A second change to 30% sucrose occurred 24 hours later. Brain tissue was sectioned or lysed and analyzed for GFAP, AQP4, or IBA1 by standard histological methods. Images were acquired using a confocal microscope or Axioscan slide scanner.
as §1

[5] = system: Male C57BL/6 mice aged 20-21 months; assay: Example 15: gene expression and histology, Compound 1 versus SC-57461A; format: in vivo, mouse; settings: Compound 1 1 mg/kg, SC-57461A 2.5 mg/kg PO bid one month
Protocol: Male C57BL/6 mice aged 20-21 months are treated with Vehicle, Compound 1, or SC-57461A commercially available LTA4H inhibitor. The mice are dosed with Compound 1 at 1 mg/kg or SC-57461A at 2.5 mg/kg PO bid for one month. Mice are anesthetized and blood and tissues are collected for further analysis. Blood is collected via cardiac puncture in syringes pre-filled with Heparin. Brains are collected following ACSF perfusion and processed for single cell RNA sequencing of either labeled endothelial cells (experiment 1) or NeuN-positive neuronal nuclei (experiment 2). In a+ separate cohort of mice, brains are collected following 4% PFA perfusion for histological endpoints (experiment 3).

[6] = Pharmacokinetic Measurement of Compound 1 (LC-MS/MS); format: in vivo, mouse; settings: C57BL/6 mice
Excerpt: The mice are subjected to cardiac puncture and blood samples were collected using syringes pre-filled with K2EDTA or heparin. […] Hemi-brain tissue was homogenized with 3× volumes of ice-cold water, then further diluted 2× with blank mouse plasma prior to analysis. […]

[7] = system: aged mice; assay: LPS model of blood-brain-barrier (BBB) leakiness; format: in vivo, mouse
Protocol: FIGS. 63-66 report the results of an in vivo model of blood-brain-barrier (BBB) leakiness. Aged mice were treated for 4 weeks with vehicle or Compound 1 followed by an acute high dose of LPS was used to induce BBB breakdown. Sodium fluorescein was injected by tail vein and leakiness of sodium fluorescein into the brain was measured using a fluorescent plate reader. FIG. 63 reports that LPS induced BBB breakdown in young and aged mice. […] (n=69, 57)). FIG. 65 reports the GFAP intensity across a 60 micron (μm) long line drawn across the large descending vessels of the CA1 hippocampus after 4 weeks of dosing with vehicle or Compound 1 followed by a high dose LPS to induced BBB breakdown. (Mixed effects analysis with repeated measures. (n=69, 57)). FIG. 66 reports the results of in vivo target engagement assays with Compound 1 in mouse plasma. Whole blood from mice dosed with Compound 1 for 4 weeks followed by high dose LPS was incubated with a calcium ionophore to stimulate LTB4 release. Plasma was generated and LTB4 levels were measured using ELISA. LTB4 is the product of LTA4H hydrolysis so this assay reports on LTA4H enzymatic activity. […] (Kruskal-Wallis test with Dunn's multiple comparisons with post-hoc Mann-Whitney test. ****p<0.0001 (n=8, 9, 8, 9)).

[8] = single oral gavage dose 10, 1, 0.3, 0.1 mg/kg

O=C(O)C1CCN(Cc2ccc([C@H]3COc4ccccc4O3)cc2)CC1 [Example 1, 1-{4-[(2S)-2,3-dihydro-1,4-benzodioxin-2-yl]benzyl}piperidine-4-carboxylic acid]
body weight ([1]; 4 weeks of dosing, first cohort): no change in body weight
body weight ([1]; 4 weeks of dosing, second cohort): no change in body weight
body weight ([1]; 4 weeks of dosing, third cohort): no change in body weight
body weight ([1]; 10 days of dosing, first cohort): no change in body weight
body weight ([1]; 10 days of dosing, second cohort): no change in body weight
body weight ([1]; 10 days of dosing, third cohort): no change in body weight
calcimycin stimulated plasma LTB4 levels ([2]; single 1 mg/kg oral dose, multiple timepoints, C57BL/6 mice): reduction in the pharmacodynamic readout of calcimycin stimulated plasma LTB4 levels
plasma LTB4 levels, dose response ([2]; single dose 0.3, 0.1 or 0.03 mg/kg, 6 hours post dosing): dose response in the pharmacodynamic readout of plasma LTB4 levels
Bsg gene expression [3]: down regulation of Bsg gene expression
CXCL12 gene expression [3]: down regulation of CXCL12 gene expression
Gpb4 gene expression [3]: down regulation of Gpb4 gene expression
Plat gene expression [3]: up regulation of Plat gene expression
Iba-1 percent thresholded area in the hippocampus [4]: reduction in Iba-1 percent thresholded area
endothelial gene expression in brain compared to SC-57461A [5]: more robust change in endothelial gene expression
histology of endothelial cells and neurons compared to SC-57461A [5]: more robust changes in histology
neuronal gene expression in brain compared to SC-57461A [5]: more robust change in neuronal gene expression
brain penetration ([6]; single oral dose): brain penetrant, even at low doses
blood levels of Compound 1 [6, 8]: sustained and detectable in plasma and blood for up to 24 hours
brain levels of Compound 1 [6, 8]: sustained and detectable for up to 24 hours
plasma levels of Compound 1 [6, 8]: sustained and detectable in plasma and blood for up to 24 hours
LTB4 levels in calcimycin stimulated plasma ([7]; 4 weeks of dosing followed by LPS): trending reduction
AQP4 intensity across large descending vessels of CA1 hippocampus ([7]; 4 weeks of dosing then high dose LPS): trending reduction in AQP4 intensity
LTB4 levels in calcimycin stimulated plasma ([7]; 4 weeks of dosing, without LPS): significant reduction in LTB4 levels
BBB leakiness (sodium fluorescein in brain) ([7]; aged mice, 4 weeks treatment then acute high dose LPS): trend towards reduced BBB leakiness
